Columns and labels:
Format in all cases: biochemical
[1] = test system: PI 3-kinase immunoprecipitated from human platelets; test: In vitro PI 3-kinase assay (32P incorporation into PI); details: PI 3-kinase from human platelets, PI substrate
Method: The effect of TGX-25, TGX-33, TGX-37, TGX-40, TGX-41, TGX-57, TGX-84, TGX-90, TGX-93, TGX-98, TGX-99, TGX-101, TGX-106, TGX-107, TGX-108, TGX-109, TGX-111, TGX-112, TGX-113, TGX-115, TGX-120, TGX-121, TGX-123, TGX-124, TGX-126, TGX-127, TGX-130 or TGX-131on PI 3-kinase activity was determined using an in vitro PI 3-kinase assay. This assay was performed using PI 3-kinase immunoprecipitated from human platelets as the enzyme and PI as the substrate. The PI 3-kinase activity was quantitated by measuring the enzymatic incorporation of [^32P] into PI, forming PI([^32P]-3)P, as previously described (Susa et al., 1992, The Journal of Biological Chemistry 267(32):22951-22956.
Washed human platelets were lysed in Triton X-100 lysis buffer (10 mM Tris, pH 7.4, 1% Triton X-100, 2 mM EDTA, 1 mM PMSF) for 30 minutes. The Triton X-100 insoluble fraction was removed by centrifugation of the cell lysates at 15,000 g for 10 minutes. PI 3-kinase was immunoprecipitated by mixing 500 μg of the cell lysate with 1 μg of a rabbit anti-rat antibody against the p85/110 form of PI 3-kinase and 30 μl of 50% Protein A-sepharose beads for 2 hours at 4° C. The Protein A-sepharose-bound PI 3-kinase was isolated by pelleting the beads at 15,000 g for 5 seconds, and washing three times with ice-old Triton X-100 lysis buffer followed by four washes with PI 3-kinase assay buffer (20 mM HEPES, pH 7.4, 1 mM EGTA, 5 mM MgCl2).
PI stored in CHCl3 was dried under N2, resuspended in the lipid buffer (50 mM HEPES, pH 7.2, 1 mM EDTA) at a final concentration of 330 μg/ml, and sonicated for 6 minutes on ice. PI([^32P]-3)P was generated by mixing the immunoprecipitated PI 3-kinase for 20 minutes with 40 μl of the PI, 10 μl of ATP (1 mM) and ^32P-r-ATP (0.5 μCi, 1 μCi/nmol), 10 μl of 10× kinase buffer, in a final assay volume of 100 μl adjusted with H2O. TGX-25, TGX-33, TGX-37, TGX-40, TGX-41, TGX-57, TGX-84, TGX-90, TGX-93, TGX-98, TGX-99, TGX-101, TGX-106, TGX-107, TGX-108, TGX-109, TGX-111, TGX-112, TGX-113, TGX-115, TGX-120, TGX-121, TGX-123, TGX-124, TGX-126, TGX-127, TGX-130 or TGX-131 was preincubated with the PI 3-kinase for 5 minutes prior to the addition of ATP. The assay was terminated with 100 μl of 1 N HCl, and the PI([^32P]-3)P product extracted with 200 μl chloroform:methanol (1:1) and 500 μl 2 M KCl. The PI([^32P]-3)P in the chloroform phase was resolved by thin layer chromatography using a solvent system containing CHCl3:MeOH:HAC:H2O (43:38:5:7) (v:v:v:v), and visualized by autoradiography. The PI([^32P]-3)P spots were then scraped off from the TLC plates, deacylated with 1 ml methylamine:butanol:methanol (42:9:47) (v:v:v) for 4 hours at 53° C., and quantitated using a liquid scintillation counter (LKB 1209 RackBETA).

PI3K α/β isoforms = test: In vitro enzyme assay PI3K α/β; details: immunoprecipitated from platelet lysate
Method: (§1) In vitro enzyme assays were conducted as a primary screen to determine drug candidate isoform affinity and specificity.
(§2) The α and β isoforms of the PI3K were immunoprecipitated from a platelet lysate using an antibody that recognised the p85 regulatory subunit common to both forms of the enzyme. The γ isoform was produced as a recombinant protein in the Thrombogenix laboratories. […] Standard phosphorylation assays using phosphatidylinositol and ^32P were used to measure the enzyme activity in the immunoprecipates in the presence or absence of an inhibitor. Enzyme activity was determined over a range of inhibitor concentrations to establish an IC50 value.

PI3K γ = molecular target: T1, PI3K γ (Homo sapiens, UniProt P48736); test: In vitro enzyme assay PI3K γ (recombinant); details: recombinant γ isoform
T1 construct: made in house
Method: as §1, §2

T1 sequence (P48736 whole entry, species assumed, canonical isoform): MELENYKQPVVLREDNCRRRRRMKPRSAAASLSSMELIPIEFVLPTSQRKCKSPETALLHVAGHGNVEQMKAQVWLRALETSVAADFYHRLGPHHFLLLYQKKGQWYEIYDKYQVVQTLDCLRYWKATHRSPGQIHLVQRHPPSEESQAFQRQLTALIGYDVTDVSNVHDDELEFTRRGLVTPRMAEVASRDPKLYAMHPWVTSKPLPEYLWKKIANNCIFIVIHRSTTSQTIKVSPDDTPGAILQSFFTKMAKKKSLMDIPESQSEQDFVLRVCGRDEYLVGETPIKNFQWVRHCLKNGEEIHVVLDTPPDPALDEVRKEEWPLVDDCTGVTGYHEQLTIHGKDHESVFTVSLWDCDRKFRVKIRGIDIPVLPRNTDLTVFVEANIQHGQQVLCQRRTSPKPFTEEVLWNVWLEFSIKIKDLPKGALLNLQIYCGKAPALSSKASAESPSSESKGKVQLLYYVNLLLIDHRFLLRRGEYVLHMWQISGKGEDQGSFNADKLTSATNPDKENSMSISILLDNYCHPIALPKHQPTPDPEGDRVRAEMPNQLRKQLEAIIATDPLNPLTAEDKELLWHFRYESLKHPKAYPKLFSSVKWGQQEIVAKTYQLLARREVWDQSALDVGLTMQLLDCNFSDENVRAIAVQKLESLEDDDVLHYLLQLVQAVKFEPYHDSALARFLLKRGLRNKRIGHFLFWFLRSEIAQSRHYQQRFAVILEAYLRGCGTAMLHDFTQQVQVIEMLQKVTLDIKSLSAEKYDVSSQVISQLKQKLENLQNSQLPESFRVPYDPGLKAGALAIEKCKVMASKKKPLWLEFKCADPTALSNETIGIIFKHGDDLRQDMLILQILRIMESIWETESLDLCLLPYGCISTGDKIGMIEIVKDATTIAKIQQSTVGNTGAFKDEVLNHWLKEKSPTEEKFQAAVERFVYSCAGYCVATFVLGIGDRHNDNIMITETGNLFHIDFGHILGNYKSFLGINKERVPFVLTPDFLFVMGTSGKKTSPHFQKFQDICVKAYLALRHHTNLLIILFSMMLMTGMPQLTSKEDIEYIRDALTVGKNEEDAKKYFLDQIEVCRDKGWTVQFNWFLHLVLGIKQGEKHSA

SMILES | IC50 [1] [nM] | IC50 (PI3K α/β isoforms) [nM] | IC50 (PI3K γ) [nM]
Cc1ccccc1Oc1cccc2c(=O)cc(N3CCOCC3)[nH]c12 [TGX-115, 8-(2′-Methylphenoxy)-2-morpholino-4-quinoline] | 50 | 50 | 5000
Cc1c(Oc2ccccc2)ccc2c(=O)cc(N3CCOCC3)oc12 [TGX-160] | 2000 |  | 
O=c1cc(N2CCOCC2)oc2c(Oc3ccccc3)cccc12 [TGX-134, 2-(4-morpholinyl)-8-phenoxy-4H-1-benzopyran-4-one] | 100 | 100 | 200
O=c1cc(N2CCOCC2)oc2c(-c3ccccc3Cl)cccc12 [TGX-146, 2-morpholinyl-8-(2-chlorophenyl)-4H-1-benzopyran-4-one] | 500 |  | 
Cc1c(Oc2ccccc2)ccc2c(=O)cc(N3CCOCC3)oc12 [TGX-158] | 5000 |  | 
Cc1c(Oc2ccccc2)ccc2c(=O)cc(N3CCOCC3)oc12 [TGX-157] | 5000 |  | 
O=c1cc(N2CCOCC2)oc2cc(OCc3cccnc3)ccc12 [TGX-144] | 2000 |  | 
Cc1cccc(Oc2cccc3c(=O)cc(N4CCOCC4)[nH]c23)c1 [TGX-127] | 50 | 50 | 5000 to 10000
O=c1cc(N2CCOCC2)[nH]c2c(Oc3ccc(F)cc3)cccc12 [TGX-121] | 50 | 50 | 5000
O=c1cc(N2CCOCC2)[nH]c2c(Cc3ccc(F)cc3)cccc12 [TGX-99] | 1000 |  | 
Cc1ccc(Cc2cccc3c(=O)cc(N4CCOCC4)[nH]c23)cc1 [TGX-106] | 2000 |  | 
O=c1cc(N2CCOCC2)[nH]c2c(Oc3ccccc3F)cccc12 [TGX-143] | 150 | 150 | 2000
Cc1ccc(S(=O)(=O)Oc2cccc3c(=O)cc(N4CCOCC4)[nH]c23)cc1 [TGX-138] | 1000 |  | 
Cc1c(OCc2ccccc2)ccc2c(=O)cc(N3CCOCC3)oc12 [TGX-154] | 10000 |  | 
COC(=O)c1cccc(Oc2cccc3c(=O)cc(N4CCOCC4)[nH]c23)c1 [TGX-149] | 500 |  | 
O=c1cc(N2CCOCC2)[nH]c2c(Cc3ccccc3)cccc12 [TGX-57, 8-Benzyl-2-morpholinoquinolone] | 2000 |  | 
Cc1cc(Nc2ccc(F)cc2C)c2nc(N3CCOCC3)cc(=O)n2c1 [TGX-170] | 200 |  | 
O=c1cc(N2CCOCC2)oc2c(-c3ccc(F)cc3)cccc12 [TGX-165, 2-morpholinyl-8-(4-fluorophenyl)-4H-1-benzopyran-4-one] | 1000 |  | 

SMILES | IC50 [1] [nM] | IC50 (PI3K α/β isoforms) [nM] | IC50 (PI3K γ) [nM]
Cc1cc(Nc2ccc(O)cc2C)c2nc(N3CCOCC3)cc(=O)n2c1 [TGX-174] | 100 | 100 | 5000
Cc1c(Oc2ccccc2)ccc2c(=O)cc(N3CCOCC3)oc12 [TGX-159] | 10000 |  | 
Cc1cc(Oc2cccc3c(=O)cc(N4CCOCC4)oc23)ccc1F [TGX-173, 8-(4-fluoro-3-methylphenyl)oxy-2-morpholinyl-4H-1-benzopyran-4-one] | 100 | 150 | 
O=c1cc(N2CCOCC2)[nH]c2c(Sc3ccccc3)cccc12 [TGX-111] | 50 | 50 | > 10000
Cc1ccccc1-c1cccc2c(=O)cc(N3CCOCC3)oc12 [TGX-145, 2-morpholinyl-8-(2-methylphenyl)-4H-1-benzopyran-4-one] | 2000 |  | 
Cc1ccc(Oc2cccc3c(=O)cc(N4CCOCC4)[nH]c23)cc1 [TGX-113] | 500 |  | 
O=c1cc(N2CCOCC2)oc2c(Cc3ccccc3)cccc12 [TGX-90, 2-morpholinyl-8-(phenylmethyl)-4H-1-benzopyran-4-one] | 100 | 100 | 3000
O=c1cc(N2CCOCC2)oc2c(-c3ccccc3C(F)(F)F)cccc12 [TGX-135, 2-morpholinyl-8-(2-trifluoromethylphenyl)-4H-1benzopyran-4-one] | 200 |  | 
O=c1cc(N2CCOCC2)oc2c(OCc3ccccc3)cccc12 [TGX-102] | 100 | 100 | 2000
O=c1cc(N2CCOCC2)oc2cc(/C=C/c3ccccc3)ccc12 [TGX-118] | 10000 |  | 
Cc1cc(C2CCN(C)C2=O)c2nc(N3CCOCC3)cc(=O)n2c1 (stereo not drawn) [TGX-153] | 20000 |  | 
Cc1cc(Nc2ncccc2C)c2nc(N3CCOCC3)cc(=O)n2c1 [TGX-179] | 10000 |  | 
O=C(O)c1cccc(Oc2cccc3c(=O)cc(N4CCOCC4)[nH]c23)c1 [TGX-151] | 500 |  | 
O=c1cc(N2CCOCC2)oc2c(O)cccc12 [TGX-125] | 25000 |  | 
O=c1cc(N2CCOCC2)oc2c(OCc3cccnc3)cccc12 [TGX-132] | 1000 |  | 
Cc1cc(NCC2CCNCC2)c2nc(N3CCOCC3)cc(=O)n2c1 [TGX-139] | 1000 |  | 
Cc1cc(Nc2ccccc2OCCN(C)C)c2nc(N3CCOCC3)cc(=O)n2c1 [TGX-162] | 2000 |  | 
Cc1cc(Cl)ccc1Oc1cccc2c(=O)cc(N3CCOCC3)[nH]c12 [TGX-180] | 1000 |  | 

Other lines, results leading:

IC50 [1] [nM] | IC50 (PI3K α/β isoforms) [nM] | IC50 (PI3K γ) [nM] | SMILES
1000 |  |  | Cc1cc(Nc2ccc(Cl)cc2)c2nc(N3CCOCC3)cc(=O)n2c1 [TGX-107]
~9800 |  |  | Cc1cc(-c2ccccc2)c2nc(N3CCOCC3)cc(=O)n2c1 [TGX-41]
500 |  |  | Cc1cc(NCc2ccncc2)c2nc(N3CCOCC3)cc(=O)n2c1 [TGX-112]
200 |  |  | Cc1cc(Nc2ccccc2O)c2nc(N3CCOCC3)cc(=O)n2c1 [TGX-130]
5000 |  |  | Cc1cc(Nc2ccccc2C(F)(F)F)c2nc(N3CCOCC3)cc(=O)n2c1 [TGX-147]
50 | 50 | > 10000 | Cc1cc(NCc2ccccc2)c2nc(N3CCOCC3)cc(=O)n2c1 [TGX-126]
1000 |  |  | Cc1cc(N[C@@H](C)c2ccccc2)c2nc(N3CCOCC3)cc(=O)n2c1 [TGX-124]
1000 |  |  | Cc1ccc(Oc2cc(C)cn3c(=O)cc(N4CCOCC4)nc23)cc1 [TGX-109]
1000 |  |  | O=c1cc(N2CCOCC2)nc2c(Oc3ccccc3)cccn12 [TGX-141, 2-Morpholinyl-8-phenoxy-4H-pyrido[1,2a]pyrimidin-4-one]
100 | 100 | 2000 | Cc1cc(Nc2ccc(O)cc2)c2nc(N3CCOCC3)cc(=O)n2c1 [TGX-101]
~10500 |  |  | O=c1cc(N2CCOCC2)nc2c(-c3ccccc3)cccn12 [TGX-37]
1000 |  |  | Cc1cc(-c2ccsc2)c2nc(N3CCOCC3)cc(=O)n2c1 [TGX-93]
500 |  |  | Cc1cc(NCc2ccccn2)c2nc(N3CCOCC3)cc(=O)n2c1 [TGX-161]
~11100 |  |  | Cc1cccn2c(=O)cc(N3CCOCC3)nc12 [TGX-25]
2000 |  |  | Cc1cc(-c2ccccc2C(F)(F)F)c2nc(N3CCOCC3)cc(=O)n2c1 [TGX-142]
1000 |  |  | Cc1cc(Nc2ccncc2)c2nc(N3CCOCC3)cc(=O)n2c1 [TGX-120]
 | 50 |  | Cc1cc(CNc2ccccc2)c2nc(N3CCOCC3)cc(=O)n2c1 [TGX-183, 6-methyl-8-phenylaminomethyl-2-morpholinyl-4H-pyrido[1,2]pyrimidin-4-one]
1000 |  |  | Cc1cc(NCc2ccc(Cl)cc2)c2nc(N3CCOCC3)cc(=O)n2c1 [TGX-108]
1000 |  |  | Cc1cc(CCc2ccncc2)c2nc(N3CCOCC3)cc(=O)n2c1 [TGX-98]
50 | 50 | 5000 | COc1ccccc1CNc1cc(C)cn2c(=O)cc(N3CCOCC3)nc12 [TGX-137]

Reference: US7405211B2, “Therapeutic morpholino-substituted compounds” (AstraZeneca AB, priority 2000, dated 2008)
